# Patent US20180064682A1, “INHIBITORS OF LEUKOTRIENE-MEDIATED ACTIVITY FOR TREATING SIDE EFFECTS OF STATIN THERAPY” (Yeda Research and Development Co. Ltd., priority 2014, published 2018)
# Experiments:
# [1] = test system: Human HaCaT pre-keratinocytes; test: ER stress-triggered ROS accumulation, DCFH-DA staining, HaCaT cells treated with Brefeldin A; assay type: cell-based; conditions: Brefeldin A 0.33 μg/ml, 24 hours, reversan 20 μM
# From the text: FIGS. 4A-4E. ER stress-triggered ROS accumulation is mediated by MGST2-derived LTC4. (4A) Mouse B16 cells were transfected with control siRNA or MGST2 siRNA, then treated with tunicamycin and stained with the superoxide anion indicator dihydroethidium (DHE). Quantitation of relative DHE fluorescence intensity is presented as determined by the ImageJ program. N=3, ***p<0.001. (FIG. 4B) Mouse B16 cells were transfected with control siRNA or MGST2 siRNA, then treated with tunicamycin and stained with the superoxide anion indicator dihydroethidium (DHE). Silencing efficiency of mouse MGST2 mRNA as determined by qRT-PCR on replicate samples is shown. N=3, ***p<0.001. (FIG. 4C) Human HaCaT pre-keratinocytes were treated with Brefeldin A (0.33 μg/ml, 24 hours) with or without the MRP1 inhibitor reversan (20 μM) or the LTC4 antagonists pranlukast, BAY-cysLT2 or BAY-u9773. The cells were then stained with the ROS indicator DCFH-DA. Quantitative analysis of relative DCF fluorescence intensity is presented. […] N=3, * p<0.05. (FIG. 4D) Immunoblotting with anti FLAG tag of HEK 293T cell extract following transfection with either control pcDNA4 vector or pcMGST2-FLAG. (FIG. 4E) HEK 293T cells were either mock-transfected (Control), transfected with pcDNA4 or with pcMGST2-FLAG and then stained with DHE. Quantitative analysis of relative DHE fluorescence intensity is presented N=4, **p<0.01.
# ER stress and oxidative stress are tightly associated, as ER stress triggers oxidative stress and vice versa. Therefore, a test for determining whether MGST2 and its product LTC4 are involved in ER stress-triggered ROS accumulation was performed. As previously reported, ER stress triggered by tunicamycin leads to accumulation of ROS, as detected by staining with the superoxide anion indicator dihydroethidium (DHE). […] MGST2 consumes GSH by coupling it not only to LTA4 but also to other substrates. […] Triggering ER stress by Brefeldin A generated ROS, as measured by the indicator dichloro-dihydro-fluorescein diacetate (DCFH-DA, FIGS. 4C, 5). […]
# NOX4 in human WISH cells = test: NOX4 levels by immunoblotting, WISH cells under ER stress; assay type: cell-based; conditions: Brefeldin A 0.66 μg/ml, 24 hours
# Protocol: (§1) FIGS. 6A-6C. ER stress-triggered NADPH oxidase 4 (NOX4) expression, translocation towards the nuclei and DNA oxidation are mediated by the MGST2-LTC4 pathway. (FIG. 6A) Human WISH cells were treated with vehicle (Control) or Brefeldin A (0.66 μg/ml, 24 hours) in the absence or presence of BAY-u9773, MK571 or Montelukast. NOX4 levels were evaluated by immunoblotting. (FIG. 6B) Mouse B16 cells were treated with vehicle (Control) or tunicamycin (0.5 μg/ml, 24 hours) in the absence or presence of Montelukast, BAY-u9773 or BAY-cysLT2. NOX4 levels were evaluated by immunoblotting. (FIG. 6C) Human HaCaT pre-keratinocytes were treated with vehicle (Control) or Brefeldin A (48 hours) in the absence or presence of pranlukast or BAY-u9773, then immunostained with anti 8-OHdG. Quantitative analysis of 8-OHdG fluorescence intensity is shown. N=3 *p<0.05, ****p<0.001.
# Several ligands of G-protein coupled receptors to which CysLTR1 and CysLTR2 belong elicit oxidative stress through receptor-mediated activation of NOX. Human WISH cells and Mouse B16 cells were treated with vehicle (Control) or Brefeldin A (0.66 μg/ml, 24 hours) in the absence or presence of BAY-u9773, MK571 or Montelukast and NOX4 levels were evaluated by immunoblotting.
# [2] = test system: Human HaCaT pre-keratinocytes; test: ER stress-triggered oxidative DNA damage, anti 8-OHdG immunostaining, HaCaT cells; assay type: cell-based; conditions: Brefeldin A 48 hours
# Protocol: as §1
# Accumulation of nuclear ROS in response to ER stress will result in oxidative DNA damage. To test whether the MGST2-LTC4 pathway is involved in ER stress-triggered DNA damage, the formation of the oxidized DNA derivative 8-hydroxy-2′dexoxyguanosine (8-OHdG) was measured. […] Altogether, the ER stress-triggered DNA damage was mediated to a very large extent by the MGST2-LTC4 pathway.
# [3] = test system: Human HaCaT pre-keratinocytes; test: ER stress-triggered cell death, Crystal violet viability, HaCaT cells; assay type: cell-based
# Protocol: (§2) FIGS. 7A-7G. The MGST2-LTC4 pathway mediates ER stress-triggered cell death. (FIG. 7A) Mouse B16 cells were transfected with control siRNA (siControl) or MGST2-specific siRNA (siMGST2), treated with vehicle or tunicamycin (1 μg/ml, 24 hours) (Tm) and then stained with Crystal violet. Relative viability of the cells is shown. N=3 ***p<0.0001. (FIG. 7B) Mouse B16 cells were transfected with control siRNA (siControl) or MGST2-specific siRNA (siMGST2), treated with vehicle or tunicamycin (Tm) and then stained with Crystal violet. Silencing efficiency of mouse MGST2 mRNA as determined by qRT-PCR on replicate samples is shown. N=3, ***p<0.001. (FIG. 7C) HEK 293T cells were mock-transfected, transfected with pcDNA4 or with pcMGST2-FLAG, treated with vehicle (Control) or Brefeldin A (0.66 μg/ml, 24 hours) and then stained with Crystal violet. Relative viability of the cells is shown. N=3 ****p<0.0001. (FIG. 7D) Human HaCaT pre-keratinocytes were treated with vehicle (Control) or Brefeldin A (BfA, 1.33 μg/ml, 48 hours) in the absence or presence of BAY-u9773 (80 nM). The plates were then stained with Crystal violet. Relative viability of the cells is shown. N=4 ***p<0.0001. (FIG. 7E) Human WISH cells were treated either with vehicle (Control) or tunicamycin (1 μg/ml, 48 hours) in the absence or presence of BAY-u9773 (80 nM) and then stained with Neutral red. Relative viability of the cells is shown. […]
# Human WISH cells [4] = test: Tunicamycin-induced cell death, Neutral red viability, WISH cells; assay type: cell-based; conditions: tunicamycin 1 μg/ml, 48 hours, BAY-u9773 80 nM
# Protocol: as §2
# [5] = test system: differentiated mouse C2C12 myocytes; test: Simvastatin-triggered cell death of differentiated C2C12 myocytes, Crystal violet; assay type: cell-based; conditions: for cell death triggered by simvastatin (relative cell viability): 10 uM simvastatin, 5 days, pranlukast 10 μM, BAY-cysLT2 10 μM, BAY-u9773 1 μM
# Protocol: FIGS. 11A-11B. BAY-cysLT2 and BAY-u9773 but not pranlukast attenuate simvastatin-triggered cell death of differentiated C2C12 mouse myocytes. (FIG. 11A) Survival of mouse C2C12 cells following differentiation into myocytes, treated with 10 uM simvastatin for 5 days in the presence of vehicle, pranlukast (10 μM), BAY-cysLT2 (10 μM), BAY-u9773 (1 μM) or Mevalonate (71.4 μM). The plates were then stained with Crystal violet and the relative cell viability was determined. (FIG. 11B) Quantification of the staining intensity is shown.
# FIGS. 12A-12B. Zileuton but not montelukast attenuates simvastatin-triggered death of differentiated C2C12 mouse myocytes. (FIG. 12A) C2C12 immortalized mouse myoblasts (15,000 cells/100 ul DMEM) were seeded for 24 and then differentiated for 3 days (initiated by serum free medium supplemented with 1×ITS medium) and then treated with […] Simvastatin with or without montelukast (2 μM), zileuton (10 μM) or mevalonate (71.4 μM). After 4 days the cells were stained with crystal violet and photographed under light microscope. (FIG. 12B) Quantification of the staining intensity is shown.
# To study the role of the MGST2-LTC4 pathway in statin-triggered cell death, differentiated mouse C2C12 myocytes in 96 well plates were treated with 10 uM simvastatin or vehicle in the presence of either vehicle, BAY-cysLT2 (10 μM) or BAY-u9773 (1 μM) or sodium mevalonate for 5 days.
# To study the role of the MGST2-LTC4 pathway in statin-triggered cell death, differentiated mouse C2C12 myocytes in 96 well plates were treated with 20 uM simvastatin or vehicle in the presence of either vehicle, zileuton (10 μM) or sodium mevalonate for 4 days.
# Mouse B16 cells = test: ER stress-triggered cell death, Crystal violet viability, B16 cells; assay type: cell-based; conditions: 24 hours, MK571 10 μM
# Protocol: (§3) FIGS. 8A-8C. Inhibitors of the MGST2-LTC4 Pathway Attenuate ER Stress-triggered Cell Death. (FIG. 8A) Human WISH cells were treated with vehicle (Control) or Brefeldin A (0.66 μg/ml, 48 hours) in the absence or presence of BAY-cysLT2. The plates were then stained with Crystal violet. Relative viability of the cells is shown. N=4, ***p<0.001. (FIG. 8B) Mouse B16 cells were treated with vehicle (Control) or tunicamycin (1 μg/ml, 24 hours) (Tm), thapsigargin (50 nM, 24 hours) (Tg) or Brefeldin A (BfA […], 24 hours) in the presence or absence of MK571 for 24 h. The plates were stained with Crystal violet. Relative viability of the cells is shown. N=4, ***p<0.001. (FIG. 8C) Immunoblot of the necrosis marker HMGB1 released to the culture media of B16 cells treated with vehicle (Control) or Brefeldin A (1.3 μg/ml, 24 hours) in the presence or absence of MK571. Ponceau staining serves as loading control.
# (§4) On top of its activity as an MRP1 inhibitor, MK571 is a potent selective CysLTR1 antagonist.
# [6] = test system: HMGB1 released from B16 cells; test: Release of necrosis marker HMGB1 to culture medium, immunoblot, B16 cells; assay type: cell-based, mouse; conditions: Brefeldin A 1.3 μg/ml, 24 hours, MK571
# Protocol: as §3, §4
# Human WISH cells [7] = test: Brefeldin A-triggered cell death, Crystal violet viability, WISH cells; assay type: cell-based; conditions: Brefeldin A 0.66 μg/ml, 48 hours, BAY-cysLT2 5 μM
# Protocol: as §2
compound,measurement,setting,value
CCCCC/C=C\C\C=C/C=C/C=C/[C@@H](Sc1ccc(C(=O)O)cc1)[C@@H](O)CCCC(=O)O [BAY-u9773],ROS accumulation (relative DCF fluorescence intensity),[1],significantly inhibited ROS accumulation
same,NOX4 expression upon ER stress,NOX4 in human WISH cells,greatly inhibited NOX4 expression
same,formation of nuclear 8-OHdG (oxidative DNA damage),[2],even more effective in attenuating the DNA damage
same,ER stress triggered cell death (relative viability),"[3]; Brefeldin A 1.33 μg/ml, 48 hours, BAY-u9773 80 nM",attenuated ER stress triggered cell death
same,tunicamycin-induced death (relative viability),Human WISH cells [4],significantly attenuated tunicamycin-induced death
same,cell death triggered by simvastatin (relative cell viability),[5],attenuated cell death
O=C(NCCCN1CCOCC1)c1cnn2c(-c3ccccc3)cc(-c3ccccc3)nc12 [reversan],ROS accumulation (relative DCF fluorescence intensity),[1],small but statistically insignificant inhibitory effect on ROS accumulation
CN(C)C(=O)CCSC(SCCC(=O)O)c1cccc(/C=C/c2ccc3ccc(Cl)cc3n2)c1 (centres unmarked) [MK571],NOX4 expression upon ER stress,NOX4 in human WISH cells,greatly inhibited NOX4 expression
same,cell death triggered by Brefeldin A (relative viability),Mouse B16 cells; Brefeldin A,significantly attenuated cell death
same,cell death triggered by thapsigargin (relative viability),Mouse B16 cells; thapsigargin 50 nM,significantly attenuated cell death
same,cell death triggered by tunicamycin (relative viability),Mouse B16 cells; tunicamycin 1 μg/ml,significantly attenuated cell death
same,secretion of HMGB1 to the culture medium (cellular necrosis),[6],reduced secretion of HMGB1
O=C(O)c1ccc(OCCCc2ccc(OCCCCOc3ccccc3)cc2)c(C(=O)NC2CCCC(C(=O)O)C2)c1 (centres unmarked) [BAY-cysLT2],ROS accumulation (relative DCF fluorescence intensity),[1],significantly inhibited ROS accumulation
same,Brefeldin A-triggered death (relative viability),Human WISH cells [7],equally protected these cells from Brefeldin A
same,cell death triggered by simvastatin (relative cell viability),[5],attenuated cell death
CC(c1cc2ccccc2s1)N(O)C(N)=O (centres unmarked) [zileuton],death triggered by proteasome inhibitor MG262 (relative viability),"[3]; MG262 50 nM, 24 hours, zileuton 10 μM",significantly protected HaCaT keratinocytes from death
same,cell death triggered by simvastatin (staining intensity),"[5]; 20 uM simvastatin, 4 days, zileuton 10 μM, montelukast 2 μM",attenuated cell death
